The values below come from patent US10420734B2, “Method of treating cancer using selective estrogen receptor modulators” (Duke University, priority 2014, dated 2019).

Molecules are shown by their SMILES.

Experiment [1] relates to ESR1 target gene trefoil factor 1 (TFF1). Put plainly: E2-dependent ESR1 target gene (TFF1) mRNA in MCF7 cells, RT qPCR. Type of experiment: cell-based. The following applies: 10^-9 M E2, ligand 10^-11-10^-6 M, 24 hours. On the procedure: RNA isolation and analysis was performed as described (Wardell et al., (2001) Biochem Pharmacol 82 (2):122-130). mRNA abundance was calculated using the ΔΔCT method (Wardell et al., (2001) Biochem Pharmacol 82 (2):122-130). Primer sequences are available upon request.
The ability of RAD1901 (FIG. 5A) to modulate the […] estradiol (E2) dependent transcriptional activity of the human estrogen receptor alpha (ESR1) and human estrogen receptor beta (ESR2) was assessed in transiently transfected SKBR3 cells using a synthetic reporter gene. […] For FIG. 5B, SKBR3 cells were plated in phenol red free media supplemented with charcoal stripped FBS (CFS) 24 hours prior to transfection with an ERE-luciferase reporter together with ESR1 or ESR2 expression vectors. 24 hours after transfection, cells were treated with E2 (10 nM) together with RAD1901 (10^−10-10^−6 M) for 24 hours prior to harvest and analysis of luciferase activity normalized to co-transfected β-galactosidase control. […] DNA content as assessed by fluorescence was measured as a surrogate for cell proliferation. The relative increase in DNA fluorescence was calculated by normalizing to baseline values detected in a duplicate plate of cells that was harvested on day 1 prior to the initial treatment. […] For FIG. 5F, expression of ESR1 target genes in tumors was analyzed essentially as in (C).
(Real-time PCR tracks product formation cycle by cycle.)

The test system of a further experiment is MCF7 xenograft tumors. Put plainly: MCF7 xenograft tumor study in estrogen-treated ovariectomized nu/nu mice. Type of experiment: in vivo. Conditions: 20 mg/kg sc daily. On the procedure: A total of 90 female Nu/Nu mice were ovariectomized and implanted subcutaneous simultaneously with an estrogen pellet (Innovative Research of America) releasing 0.72 mg estradiol (E2) over 60 days. 2 days later an approximately 6 mm^3 fragment of an MCF7 xenograft tumor (isolated from a recently sacrificed estrogen treated nu/nu mouse) was inserted subcutaneous into the axial mammary gland. Tumor growth (by caliper measurement) and animal body weight were monitored 3× weekly until tumor volume reached ˜0.2 cm^3. […] Treatments were formulated in sterile corn oil and were administered daily by subcutaneous injection. After 3 weeks of treatments, animals were euthanized and serum and tissues saved for analysis. FIG. 1B depicts tumor volume analyzed using non-linear curve fit and exponential growth calculation (Graphpad Prism), followed by two-way ANOVA and Bonferroni analysis.
Xenograft tumor analysis: Estrogen-stimulated MCF7 tumors were initiated in the axial mammary gland of 6-week old estrogen-treated (0.72 mg/60 days pellet sc, Innovative Research of America) ovariectomized female NU/NU mice (in-house colony) by serial transfer and were measured as described (Wardell et al., (2013) Clin Cancer Res 19 (9):2420-2431). […] Animal tissues were processed and analyzed as described (Wardell et al., (2013) Clin Cancer Res 19 (9):2420-2431).
The ability of RAD1901 (FIG. 5A) to modulate the […] estradiol (E2) dependent transcriptional activity of the human estrogen receptor alpha (ESR1) and human estrogen receptor beta (ESR2) was assessed in transiently transfected SKBR3 cells using a synthetic reporter gene. […] DNA content as assessed by fluorescence was measured as a surrogate for cell proliferation. The relative increase in DNA fluorescence was calculated by normalizing to baseline values detected in a duplicate plate of cells that was harvested on day 1 prior to the initial treatment. […] For FIG. 5F, expression of ESR1 target genes in tumors was analyzed essentially as in (C).

In another experiment the target is T1, ESR1 (Homo sapiens, UniProt P03372).
T1 sequence (P03372 1-595): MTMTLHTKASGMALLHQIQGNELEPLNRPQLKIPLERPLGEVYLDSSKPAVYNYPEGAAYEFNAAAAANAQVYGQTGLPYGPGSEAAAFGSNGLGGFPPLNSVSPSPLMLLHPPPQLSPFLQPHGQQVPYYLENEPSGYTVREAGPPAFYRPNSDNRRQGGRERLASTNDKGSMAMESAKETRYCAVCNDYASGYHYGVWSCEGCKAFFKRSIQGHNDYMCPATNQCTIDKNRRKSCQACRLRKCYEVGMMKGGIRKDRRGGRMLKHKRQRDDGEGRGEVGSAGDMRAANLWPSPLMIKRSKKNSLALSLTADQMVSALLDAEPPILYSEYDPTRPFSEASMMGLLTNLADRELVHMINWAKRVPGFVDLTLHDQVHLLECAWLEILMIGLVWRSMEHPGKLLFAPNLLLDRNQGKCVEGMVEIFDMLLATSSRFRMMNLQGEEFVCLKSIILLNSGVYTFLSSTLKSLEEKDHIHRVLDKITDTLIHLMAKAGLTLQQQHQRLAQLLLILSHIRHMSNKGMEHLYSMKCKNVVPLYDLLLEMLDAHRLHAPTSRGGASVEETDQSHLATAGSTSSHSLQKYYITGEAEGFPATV
In words: ESR1 expression in LTED MCF7 cells (immunoblot). Type of experiment: cell-based. The following applies: 24 hours, SERDs 10^-6 M. On the procedure: MCF7 and SKBR3 cell lines were maintained in DMEM/F12 or RPMI media (Invitrogen), respectively, supplemented with 8% fetal bovine serum (FBS, Gemini), non-essential amino acids (Invitrogen), and sodium pyruvate (Invitrogen). Unless otherwise indicated, cells were plated for experiments in media lacking phenol red and supplemented with 8% charcoal stripped FBS (CFS, Gemini). LTED MCF7 cells were maintained and plated for experiments in phenol red free DMEM/F12 media supplemented with 8% CFS that had been charcoal stripped twice. 48 hours after plating, cells were treated with ESR1 ligands as indicated, and were harvested for immunoblot or real time quantitative PCR analysis 24 hours after treatment.
Expression of ESR1 and loading control cytokeratin 18 (CK18—FIG. 7A) in whole cell extracts were detected by immunoblot (top). ESR1 levels relative to CK18 were quantitated by densitometry using Adobe Photoshop (bottom). […] ESR1 expression was detected as in FIG. 6A. For FIGS. 6C-6D, LTED MCF7 cells were plated in phenol red free media supplemented with FBS that was stripped of growth factors twice using charcoal. For FIG. 6C, after 48 hours, cells were treated for 24 hours with E2 (10^−7 M) or SERDs (10^−6 M) and ESR1 was analyzed as in FIG. 6A.

Turning to `CCNCCc1ccc(CN(CC)c2cc(OC)ccc2[C@@H]2CCc3cc(O)ccc3C2)cc1` [RAD1901, (R)-6-{2-{ethyl[4-(2-ethylaminoethyl)benzyl]amino}-4-methoxyphenyl}-5,6,7,8-tetrahydronaphthalen-2-ol], the “E2-dependent induction of target gene transcription (TFF1 mRNA)” value in experiment [1] was “inhibited”. In addition, in the experiment on MCF7 xenograft tumors, the “E2-stimulated growth of MCF7 tumors” value is “inhibited E2-stimulated growth of the tumors with efficacy similar to tamoxifen”; the “expression of ESR1-target genes PGR and FHL1 in treated tumors” value is “suppress the expression of the ESR1-target genes PGR and FHL1 to the same degree”. The ESR1 expression levels result on ESR1 is recorded as “downregulated ESR1 expression”.
